Assay results reported in patent US7687079B2, “Methods of treating ileus” (priority 2002, dated 2010).
“Also recorded” adds a separate entry of the source.

Key:
[1] = tested on: small intestinal circular muscle; experiment: in vitro circular muscle contractility (spontaneous and bethanechol-stimulated) after IM; assay type: in vivo, mouse
From the text: Surgical Manipulation. Mice were anesthetized with inhaled isoflurane and the abdomen opened by midline laparotomy. The small intestine was eventrated and gently compressed along its entire length using moistened sterile cotton applicators. This procedure is designed to simulate “running” of the bowel commonly performed during abdominal surgery in the clinical setting. The bowel was repositioned in the abdominal cavity and the incision closed by two layers of continuous sutures. The duration of the procedure was approximately 15 minutes and the animals moved freely about their cage within 20 minutes of withdrawal of anesthetic.
CO Inhalation Treatment. Mice housed in cages were placed in plexiglass chambers that were continuously ventilated with air or with air containing CO (250 ppm). A sampling port was provided to continuously monitor carbon monoxide concentrations within the chamber. Animals had free access to food and water at all times. Mice were exposed to CO or air 1 hour prior to laparotomy, removed for surgical manipulation, and then returned to the chamber for 24 hours. Mice not undergoing surgery were removed from the chamber for a similar length of time and then returned to the chamber for 24 hours.
Mice were anesthetized and killed by exsanguination at the end of the 24-hour chamber treatment with CO or room air. In vitro circular muscle mechanical activity was measured as previously described in Eskandari et al. (Am. J. Physiol. 273:G727-G734 (1997)). Briefly, a segment of mid small bowel was pinned in a Sylgard™ (Midland, Mich.) lined dissecting dish containing pre-oxygenated Krebs-Ringer-bicarbonate buffer (KRB; in mM: 137.4 Na^+, 5.9 K^+, 2.5 Ca^2+, 1.2 Mg^2+, 134 Cl^−, 15.5 HCO3^−, 1.2 H2PO4−, and 11.5 glucose), gassed with 97% O2/3% CO2 to establish a pH of 7.4. The intestine was opened along the mesenteric border, and the mucosa removed by stripping with fine forceps. Full-thickness strips of muscularis (1×6 mm) cut parallel to the circular muscle layer were mounted in standard horizontal mechanical organ chambers and were continuously superfused with preoxygenated KRB maintained at 37° C. One end of each strip was attached by ligature to a fixed post and the other to an isometric force transducer (WPI, Sarasota, Fla.). Strips were allowed to equilibrate for 1 hour, after which they were incrementally stretched to Lo (length at which maximal spontaneous contraction occurs). After a baseline recording period of 30 min, contractility-response curves were generated by exposing the tissues to increasing concentrations of the muscarinic agonist bethanechol (0.3 to 300 μM) for 10 minutes, followed by intervening 10-minute wash periods. Contractile activity was calculated by integrating the area under the trace. The response was normalized to the amount of tissue by converting the weight (1.03 mg/mm^2) and length of the strip to square millimeters of tissue, and reported as g/s/mm^2. Intestinal transit was measured in controls and manipulated animals 24 hours postoperatively by evaluating the intestinal distribution of a non-absorbable fluorescein-labeled dextran (MW 70,000). Animals were lightly sedated with isofluran and fed orally with labeled dextran (100 μl of 25 mg/ml stock solution). Ninety minutes after administration, the animal was sacrificed and the entire bowel from stomach to distal colon was collected. The contents of the stomach, small bowel (divided into 10 segments of equal length), the cecum, and colon (3 segments of equal length) were each minced in 1 ml of saline and mixed vigorously to release the dextran present in each segment. After pelleting the intestinal tissue and chyme, aliquots of the cleared supernatant were read in duplicate on a plate reader (CytoFluor II; excitation wavelength 530 nm and emission 590 nm) for quantification of the fluorescent signal in each bowel segment. […]

serum total nitrite = experiment: Example 3 serum total nitrite; assay type: in vivo, mouse; conditions: IM-CO mice
Description: Ileus was induced in mice by gentle manipulation of the small intestine. An incision was made to expose the abdominal cavity of the mouse, and bowel manipulation was performed by gentle poking and prodding of the small intestine (see, e.g., Schwarz et al., Gastroenterology 121(6):1354-1357 (2001)). The incision was subsequently closed, and analyses were performed 24 hours later. Mice were exposed to CO by inhalation (250 and 500 ppm) for 1 hour immediately prior to intestinal manipulation and during the entire 24-hour recovery period. Intestinal contractility was assessed in vitro by measuring circular muscle strip contractions in response to bethanechol (0.3-300 μM) and in vivo by determining intestinal transit from the distribution of orally-fed, fluorescein-labeled dextran and calculating geometric center as described in Example 1 above. HO-1 and IL-10 mRNA expression were determined by SYBR green real time RT-PCR from extracts of muscularis extemae, as described in Example 1 above. Release of nitric oxide (NO), a potent inhibitor of smooth muscle contractility, was estimated by measuring serum total nitrite, also described in Example 1 above.

`[C-]#[O+]` [CO, carbon monoxide] was tested, and the bethanechol-induced contractile activity ([1]; IM + CO) was “restored contractile activity to control levels”, the peak contractile force ([1]; IM + CO 250 ppm, 100 μM bethanechol) was 3.6±0.7 g/s/mm^2 and the “spontaneous contractile activity (rythmicity)” value ([1]; IM mice treated with CO) was “significantly improved; also recorded: restored”. For the same compound, the bethanechol-induced contractile activity ([1]; control animals + CO) was “no effect”, the spontaneous contractility ([1]; control mice + CO 24 hr) was “no effect” and the peak contractile force ([1]; control mice, CO alone, bethanechol) was 3.2±0.5 g/s/mm^2. For the same compound, the serum nitrite (serum total nitrite) was 6.0 ± 1.6 µM.
